Test results published in patent publication US20210353579A1, “HIGH PENETRATION COMPOSITIONS AND USES THEREOF” (Techfields Pharma Co., Ltd., priority 2006, published 2021).
Where two headings read alike, the source gives them in different places.

Legend:
[1] = Plasma levels after transdermal administration to hairless mice; assay type: in vivo; settings: for Peak plasma concentration of parent compound after prodrug compound / t, time to peak plasma level of parent compound after prodrug compound: mouse, in vivo
Protocol: Tested compounds (20% solution or suspension in 1 mL isopropanol) are administered transdermally to the skin of intact hairless mice. The plasma levels of the parent compounds are determined by HPLC.

human skin tissue = settings: pH 7.4
in vivo = settings: rat
Protocol: The acute toxicity of the prodrug compounds and parent compounds are measured by LD50 of rat.

mice = assay: Analgesic activity, acetic acid writhing; assay type: in vivo
Protocol: The prodrug compounds are administered either transdermally or orally. The parent compounds are administered orally. The number of writhing that occurred when mice are administered the acetic acid solution are counted, and the rate of inhibition based on the control group which was not pretreated with any test compounds is calculated. […] The A group is the control group.

rats = assay: Antipyretic activity, E. coli suspension as pyrogen; assay type: in vivo; settings: in °C (unit assumed)
Protocol: Rats are administered with sterilized E. coli suspension as a pyrogen. Each group of rats are administered with a prodrug compounds or parent compounds at a dosage specified below. The prodrug compounds are administered either orally or transdermally. The parent compounds are administered orally.

[2] = Solubility in water / aqueous solubility of HPPs and parent drugs; settings: product as prepared in Example 1
[3] = 50 mg/kg orally, 30 min before acetic acid
[4] = 50 mg/kg transdermally, 30 min before acetic acid
[5] = 100 mg/kg orally, 30 min before acetic acid
[6] = 100 mg/kg transdermally, 30 min before acetic acid
[7] = 100 mg/kg transdermally, 60 minutes before acetic acid
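Throughout, for LD50 of HPP: acute toxicity in rats expressed as LD50, determined for both prodrugs and their parent compounds.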
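Throughout, for LD50: acute toxicity in rats expressed as LD50, determined for both prodrugs and their parent compounds.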

| SMILES | Peak plasma concentration of parent compound after prodrug compound [1] [mg/L] | t, time to peak plasma level of parent compound after prodrug compound [1] [min] | % (rate of writhing inhibition) (mice; [6]) [%] | No. of Writhing (mice; [6]) | body temperature, t = 0 min (rats; 100 mg/kg transdermally) | body temperature, t = 90 min (rats; 100 mg/kg transdermally) | body temperature, t = 180 min (rats; 100 mg/kg transdermally) | body temperature, t = 270 min (rats; 100 mg/kg transdermally) | In vitro penetration rate (apparent flux), prodrug compounds (human skin tissue) [μg/cm^2/h] | LD50 of HPP (rat; rats) [mg/kg] | also measured |
| --- | --- | --- | --- | --- | --- | --- | --- | --- | --- | --- | --- |
| O=C(O)Cc1sc(-c2ccccc2)nc1-c1ccc(Cl)cc1 [Fentiazac, fentiazac, reference compound] | – | – | – | – | – | – | – | – | – | – | t, time to peak plasma level after parent compound ([1]; parent compound administered (time when taken orally)): 1 to 2 h; Peak plasma concentration after parent compound ([1]; parent compound administered, hairless mice): 0.1 mg/L; In vitro penetration rate (apparent flux), parent compounds (human skin tissue; human, 20 %): 10 μg/cm^2/h; LD50 (in vivo): 700 mg/kg |
| CC(=O)O.CCN(CC)CCOC(=O)C(C)c1ccc(CC(C)C)cc1 (centres unmarked) [diethylaminoethyl 2-(ρ-isobutylphenyl) propionate.AcOH] | 120 | 30 | 71 | 9.8 | 37.27 ± 0.06 | 36.30 ± 0.06 | 36.35 ± 0.08 | 36.31 ± 0.07 | 1250 | 1800 | % (rate of writhing inhibition) (mice; [3]): 59%; No. of Writhing (mice; [3]): 14.1; % (rate of writhing inhibition) (mice; [4]): 61%; No. of Writhing (mice; [4]): 13.3; % (rate of writhing inhibition) (mice; [5]): 70%; No. of Writhing (mice; [5]): 10.2; body temperature, t = 0 min (rats; 100 mg/kg orally): 37.22 ± 0.07; body temperature, t = 90 min (rats; 100 mg/kg orally): 36.40 ± 0.06; body temperature, t = 180 min (rats; 100 mg/kg orally): 36.50 ± 0.05; body temperature, t = 270 min (rats; 100 mg/kg orally): 36.45 ± 0.08; body temperature, t = 0 min (rats; 150 mg/kg orally): 37.24 ± 0.08; body temperature, t = 90 min (rats; 150 mg/kg orally): 36.30 ± 0.05; body temperature, t = 180 min (rats; 150 mg/kg orally): 36.35 ± 0.07; body temperature, t = 270 min (rats; 150 mg/kg orally): 36.38 ± 0.08; body temperature, t = 0 min (rats; 150 mg/kg transdermally): 37.26 ± 0.05; body temperature, t = 90 min (rats; 150 mg/kg transdermally): 36.25 ± 0.05; body temperature, t = 180 min (rats; 150 mg/kg transdermally): 36.30 ± 0.07; body temperature, t = 270 min (rats; 150 mg/kg transdermally): 36.20 ± 0.05 |
| CC(=O)O.CCN(CC)CCOC(=O)c1cccnc1Nc1cccc(C(F)(F)F)c1C [diethylaminoethyl 2-[[2-methyl-3-(trifluoromethyl)phenyl]amino]-3-pyridinecarboxylate.AcOH] | 20 | 50 | – | – | 37.23 ± 0.06 | 36.69 ± 0.06 | 36.52 ± 0.08 | 36.40 ± 0.07 | 1700 | 1100 | % (rate of writhing inhibition) (mice; [7]): 55%; No. of Writhing (mice; [7]): 15.7 |
| CC(=O)O.CCN(CC)CCOC(=O)c1cccnc1Nc1cccc(C(F)(F)F)c1 [diethylaminoethyl 2-[[3-(trifluoromethyl)phenyl]amino]-3-pyridinecarboxylate.AcOH] | 20 | 50 | – | – | 37.25 ± 0.07 | 36.82 ± 0.06 | 36.70 ± 0.05 | 36.50 ± 0.08 | 1800 | 750 | % (rate of writhing inhibition) (mice; [7]): 57%; No. of Writhing (mice; [7]): 15.2 |
| CC(=O)O.CCN(CC)CCOC(=O)Cc1cccc(C(=O)c2ccccc2)c1N [diethylaminoethyl 2-amino-3-benzoylbenzeneacetate.AcOH] | 20 | 50 | 61 | 13.8 | 37.22 ± 0.06 | 36.65 ± 0.05 | 36.62 ± 0.08 | 36.58 ± 0.07 | 800 | 1000 | – |
| CC(=O)O.CCN(CC)CCOC(=O)C(C)c1ccc(N2Cc3ccccc3C2=O)cc1 (stereo not drawn) [diethylaminoethyl 4-(1,3-dihydro-1-oxo-2H-isoindol-2-yl)-α-methylbenzeneacetate.AcOH] | 2000 | 50 | 62 | 13.2 | 37.28 ± 0.06 | 36.65 ± 0.06 | 36.58 ± 0.08 | 36.56 ± 0.07 | 4200 | 3500 | – |
| CC(=O)O.CCN(CC)CCOC(=O)C1CCc2cc(C3CCCCC3)c(Cl)cc21 (centres unmarked) [diethylaminoethyl 6-chloro-5-cyclohexyl-2,3-dihydro-1H-indene-1-carboxylate.AcOH] | 2000 | 50 | 57 | 15.2 | 37.25 ± 0.06 | 36.63 ± 0.06 | 36.55 ± 0.08 | 36.51 ± 0.07 | 4000 | 200 | – |
| CC(=O)O.CCN(CC)CCOC(=O)CC1=C(C)/C(=C/c2ccc([S+](C)[O-])cc2)c2ccc(F)cc21 (centres unmarked) [diethylaminoethyl (Z)-5-fluoro-2-methyl-1-[(4-methylsulfinyl)phenylmethylene]-1H-indene-3-acetate.AcOH] | 20 | 50 | 59 | 14.2 | 37.28 ± 0.06 | 36.65 ± 0.05 | 36.62 ± 0.08 | 36.58 ± 0.07 | 900 | 500 | – |
| CC(=O)O.CCN(CC)CCOC(=O)C(Cl)c1ccc(C2CCCCC2)c(Cl)c1 (stereo not drawn) [diethylaminoethyl α,3-dichloro-4-cyclohexylbenzeneacetate.AcOH] | 2000 | 50 | 57 | 15.2 | 37.25 ± 0.06 | 36.75 ± 0.05 | 36.62 ± 0.08 | 36.58 ± 0.07 | 3800 | 600 | – |
| CC(=O)O.CCN(CC)CCOC(=O)C(C)c1ccc(C(=O)c2cccs2)cc1 (stereo not drawn) [diethylaminoethyl α-methyl-4-(2-thienylcarbonyl)benzeneacetate.AcOH] | 2000 | 50 | 55 | 15.7 | 37.28 ± 0.06 | 36.65 ± 0.06 | 36.58 ± 0.08 | 36.45 ± 0.07 | 3000 | 800 | – |
| C=C(C)CNc1ccc(C(C)C(=O)OCCN(CC)CC)cc1.CC(=O)O (stereo not drawn) [diethylaminoethyl α-methyl-4-[(2-methyl-2-propenyl)amino]benzeneacetate.AcOH] | 2000 | 50 | 55 | 15.6 | 37.23 ± 0.06 | 36.69 ± 0.06 | 36.52 ± 0.08 | 36.40 ± 0.07 | 3500 | 1100 | – |
| CC(=O)O.CCN(CC)CCOC(=O)C(C)c1ccc2c(c1)Cc1cccnc1O2 (stereo not drawn) [diethylaminoethyl α-methyl-5H-[1]benzopyrano[2,3-b]pyridine-7-acetate.AcOH] | 2000 | 50 | 54 | 16.1 | 37.27 ± 0.06 | 36.76 ± 0.05 | 36.65 ± 0.08 | 36.49 ± 0.07 | 3800 | – | LD50 of HPP (rat; rat, in vivo): 750 mg/kg |
| CC(=O)O.CN(C)CCOC(=O)Cc1ccccc1Nc1c(Cl)cccc1Cl [dimethylaminoethyl 2[(2,6-dichlorophenyl)amino] benzene acetate.AcOH] | – | – | – | – | – | – | – | – | – | – | LD50 of HPP (rat; rat, in vivo): 700 mg/kg; Solubility in water [2]: 410 mg/mL |
